{"source": "ChEMBL document CHEMBL3872207", "about": "“Aromatic heterocyclic esters of podophyllotoxin exert anti-MDR activity in human leukemia K562/ADR cells via ROS/MAPK signaling pathways” (Eur J Med Chem, 2016)", "data": [{"test_system": "not listed separately", "assay": "Antiproliferative activity against human K562/ADR cells measured after 72 hrs by CCK8 assay", "format": "functional, cell-based", "details": "not given", "units": {"IC50": "nM"}, "values": [{"smiles": "COc1cc([C@@H]2c3cc4c(cc3[C@H](OC(=O)c3nccc5ccccc35)[C@H]3COC(=O)[C@H]23)OCO4)cc(OC)c1OC", "IC50": 177}, {"smiles": "COc1cc([C@@H]2c3cc4c(cc3[C@H](OC(=O)c3nn(C)c5ccccc35)[C@H]3COC(=O)[C@H]23)OCO4)cc(OC)c1OC", "IC50": 115}, {"smiles": "COc1cc([C@@H]2c3cc4c(cc3[C@@H](O[C@@H]3O[C@@H]5CO[C@@H](C)O[C@H]5[C@H](O)[C@H]3O)[C@H]3COC(=O)[C@H]23)OCO4)cc(OC)c1O", "note": "[ETOPOSIDE]", "IC50": 2210}, {"smiles": "COc1cc([C@@H]2c3cc4c(cc3[C@H](OC(=O)c3ccc5nc(C)ccc5c3)[C@H]3COC(=O)[C@H]23)OCO4)cc(OC)c1OC", "IC50": 61}, {"smiles": "COc1cccc2c1C(=O)c1c(O)c3c(c(O)c1C2=O)C[C@@](O)(C(=O)CO)C[C@@H]3O[C@H]1C[C@H](N)[C@H](O)[C@H](C)O1", "note": "[DOXORUBICIN]", "IC50": 18800}, {"smiles": "COc1cc([C@@H]2c3cc4c(cc3[C@H](OC(=O)c3cnc5ccccc5n3)[C@H]3COC(=O)[C@H]23)OCO4)cc(OC)c1OC", "IC50": 34}, {"smiles": "COc1cc([C@@H]2c3cc4c(cc3[C@H](OC(=O)c3cscn3)[C@H]3COC(=O)[C@H]23)OCO4)cc(OC)c1OC", "IC50": 74}, {"smiles": "COc1cc([C@@H]2c3cc4c(cc3[C@H](OC(=O)c3cnn(C)c3)[C@H]3COC(=O)[C@H]23)OCO4)cc(OC)c1OC", "IC50": 139}, {"smiles": "COc1cc([C@@H]2c3cc4c(cc3[C@H](OC(=O)c3cc5ccccc5s3)[C@H]3COC(=O)[C@H]23)OCO4)cc(OC)c1OC", "IC50": 466}, {"smiles": "COc1cc([C@@H]2c3cc4c(cc3[C@H](OC(=O)c3cn(C)cn3)[C@H]3COC(=O)[C@H]23)OCO4)cc(OC)c1OC", "IC50": 858}, {"smiles": "COc1cc([C@@H]2c3cc4c(cc3[C@H](OC(=O)c3cc(C)on3)[C@H]3COC(=O)[C@H]23)OCO4)cc(OC)c1OC", "IC50": 52}, {"smiles": "COc1cc([C@@H]2c3cc4c(cc3[C@H](OC(=O)c3cn(C5CC5)c5cc(Cl)c(F)cc5c3=O)[C@H]3COC(=O)[C@H]23)OCO4)cc(OC)c1OC", "IC50": 550}]}, {"test_system": "K562", "assay": "Resistance index, ratio of IC50 for human K562/ADR cells to IC50 for human K562 cells", "format": "functional", "details": "not given", "values": [{"smiles": "COc1cc([C@@H]2c3cc4c(cc3[C@H](OC(=O)c3nccc5ccccc35)[C@H]3COC(=O)[C@H]23)OCO4)cc(OC)c1OC", "Ratio IC50": 2.765}, {"smiles": "COc1cc([C@@H]2c3cc4c(cc3[C@H](OC(=O)c3nn(C)c5ccccc35)[C@H]3COC(=O)[C@H]23)OCO4)cc(OC)c1OC", "Ratio IC50": 2.446}, {"smiles": "COc1cc([C@@H]2c3cc4c(cc3[C@@H](O[C@@H]3O[C@@H]5CO[C@@H](C)O[C@H]5[C@H](O)[C@H]3O)[C@H]3COC(=O)[C@H]23)OCO4)cc(OC)c1O", "note": "[ETOPOSIDE]", "Ratio IC50": 6.408}, {"smiles": "COc1cc([C@@H]2c3cc4c(cc3[C@H](OC(=O)c3ccc5nc(C)ccc5c3)[C@H]3COC(=O)[C@H]23)OCO4)cc(OC)c1OC", "Ratio IC50": 0.953}, {"smiles": "COc1cccc2c1C(=O)c1c(O)c3c(c(O)c1C2=O)C[C@@](O)(C(=O)CO)C[C@@H]3O[C@H]1C[C@H](N)[C@H](O)[C@H](C)O1", "note": "[DOXORUBICIN]", "Ratio IC50": 85.359}, {"smiles": "COc1cc([C@@H]2c3cc4c(cc3[C@H](OC(=O)c3cnc5ccccc5n3)[C@H]3COC(=O)[C@H]23)OCO4)cc(OC)c1OC", "Ratio IC50": 1.545}, {"smiles": "COc1cc([C@@H]2c3cc4c(cc3[C@H](OC(=O)c3cscn3)[C@H]3COC(=O)[C@H]23)OCO4)cc(OC)c1OC", "Ratio IC50": 2.114}, {"smiles": "COc1cc([C@@H]2c3cc4c(cc3[C@H](OC(=O)c3cnn(C)c3)[C@H]3COC(=O)[C@H]23)OCO4)cc(OC)c1OC", "Ratio IC50": 2.673}, {"smiles": "COc1cc([C@@H]2c3cc4c(cc3[C@H](OC(=O)c3cc5ccccc5s3)[C@H]3COC(=O)[C@H]23)OCO4)cc(OC)c1OC", "Ratio IC50": 2.532}, {"smiles": "COc1cc([C@@H]2c3cc4c(cc3[C@H](OC(=O)c3cn(C)cn3)[C@H]3COC(=O)[C@H]23)OCO4)cc(OC)c1OC", "Ratio IC50": 10.86}, {"smiles": "COc1cc([C@@H]2c3cc4c(cc3[C@H](OC(=O)c3cc(C)on3)[C@H]3COC(=O)[C@H]23)OCO4)cc(OC)c1OC", "Ratio IC50": 2.08}, {"smiles": "COc1cc([C@@H]2c3cc4c(cc3[C@H](OC(=O)c3cn(C5CC5)c5cc(Cl)c(F)cc5c3=O)[C@H]3COC(=O)[C@H]23)OCO4)cc(OC)c1OC", "Ratio IC50": 1.803}]}, {"test_system": "not listed separately", "assay": "Potency index, ratio of etoposide IC50 to compound IC50 for antiproliferative activity against human K562/ADR cells", "format": "functional", "details": "not given", "values": [{"smiles": "COc1cc([C@@H]2c3cc4c(cc3[C@H](OC(=O)c3cnc5ccccc5n3)[C@H]3COC(=O)[C@H]23)OCO4)cc(OC)c1OC", "Ratio IC50": 65.029}]}, {"test_system": "not listed separately", "assay": "Antiproliferative activity against human K562 cells measured after 72 hrs by CCK8 assay", "format": "functional, cell-based", "details": "K562, 72 h", "units": {"IC50": "nM"}, "values": [{"smiles": "COc1cc([C@@H]2c3cc4c(cc3[C@H](OC(=O)c3nccc5ccccc35)[C@H]3COC(=O)[C@H]23)OCO4)cc(OC)c1OC", "IC50": 64}, {"smiles": "COc1cc([C@@H]2c3cc4c(cc3[C@H](OC(=O)c3nn(C)c5ccccc35)[C@H]3COC(=O)[C@H]23)OCO4)cc(OC)c1OC", "IC50": 47}, {"smiles": "COc1cc([C@@H]2c3cc4c(cc3[C@@H](O[C@@H]3O[C@@H]5CO[C@@H](C)O[C@H]5[C@H](O)[C@H]3O)[C@H]3COC(=O)[C@H]23)OCO4)cc(OC)c1O", "note": "[ETOPOSIDE]", "IC50": 345}, {"smiles": "COc1cc([C@@H]2c3cc4c(cc3[C@H](OC(=O)c3ccc5nc(C)ccc5c3)[C@H]3COC(=O)[C@H]23)OCO4)cc(OC)c1OC", "IC50": 64}, {"smiles": "COc1cccc2c1C(=O)c1c(O)c3c(c(O)c1C2=O)C[C@@](O)(C(=O)CO)C[C@@H]3O[C@H]1C[C@H](N)[C@H](O)[C@H](C)O1", "note": "[DOXORUBICIN]", "IC50": 220}, {"smiles": "COc1cc([C@@H]2c3cc4c(cc3[C@H](OC(=O)c3cnc5ccccc5n3)[C@H]3COC(=O)[C@H]23)OCO4)cc(OC)c1OC", "IC50": 22}, {"smiles": "COc1cc([C@@H]2c3cc4c(cc3[C@H](OC(=O)c3cscn3)[C@H]3COC(=O)[C@H]23)OCO4)cc(OC)c1OC", "IC50": 35}, {"smiles": "COc1cc([C@@H]2c3cc4c(cc3[C@H](OC(=O)c3cnn(C)c3)[C@H]3COC(=O)[C@H]23)OCO4)cc(OC)c1OC", "IC50": 52}, {"smiles": "COc1cc([C@@H]2c3cc4c(cc3[C@H](OC(=O)c3cc5ccccc5s3)[C@H]3COC(=O)[C@H]23)OCO4)cc(OC)c1OC", "IC50": 184}, {"smiles": "COc1cc([C@@H]2c3cc4c(cc3[C@H](OC(=O)c3cn(C)cn3)[C@H]3COC(=O)[C@H]23)OCO4)cc(OC)c1OC", "IC50": 79}, {"smiles": "COc1cc([C@@H]2c3cc4c(cc3[C@H](OC(=O)c3cc(C)on3)[C@H]3COC(=O)[C@H]23)OCO4)cc(OC)c1OC", "IC50": 25}, {"smiles": "COc1cc([C@@H]2c3cc4c(cc3[C@H](OC(=O)c3cn(C5CC5)c5cc(Cl)c(F)cc5c3=O)[C@H]3COC(=O)[C@H]23)OCO4)cc(OC)c1OC", "IC50": 305}]}, {"test_system": "not listed separately", "assay": "Potency index, ratio of doxorubicin IC50 to compound IC50 for antiproliferative activity against human K562/ADR cells", "format": "functional", "details": "not given", "values": [{"smiles": "COc1cc([C@@H]2c3cc4c(cc3[C@H](OC(=O)c3cnc5ccccc5n3)[C@H]3COC(=O)[C@H]23)OCO4)cc(OC)c1OC", "Ratio IC50": 552.323}]}]}
